Experimental data as given in US5416194A, “Polypeptide having affinity for lipopolysaccharide and method for preparing the same” (Seikagaku Kogyo Co., Ltd., priority 1987, dated 1995).
Where no end group is shown, it is not given here.

Experiments:
[1] = system: Spleen cells (SC) of C57BL male mouse; experiment: Inhibition of blastogenesis of mouse lymphocyte by LPS (3H-TdR uptake, microscopy); assay type: cell-based; conditions: for magnification and colonization (blastogenesis) under the microscope: then 50 μg/ml LPS, three days; for inhibition of blastogenesis of lymphocyte: in the presence of LPS, 72 hours, 3H-TdR, FIG. 5
Method: Spleen cells (SC) of C57BL male mouse (5 weeks age) was collected by use of Ficoll-Hypaque gravity centrifugation and suspended in RPMI-1640 culture medium (no serum or added with BSA, FCS). The resulting culture medium was adjusted to 3×10^6 cell/ml and 100 μl was distributed into each of the 96-holes of a microtiter plate. 10 μl each of 0.4, 4, 40 and 400 μg/ml polypeptide of the present invention (LBP), finally then 80 μl of the culture medium, and finally 10 μl of 400 μg/ml LPS were added to the distibuted culture medium, followed by incubation in 5% CO2 incubator for 72 hours. ^3 H-thymidine (^3 H-TdR) was added thereto in an amount of 1 μci/10 μl 18 hours before completion of the incubation. The amount of ^3 H-TdR collected after peeling off of cells by use of cell harvester was measured by use of a liquid scintillation counter to discover the index of cell multiplication.
Cell multiplication was observed by using a microscope to take an insert image microphotograph.

bacteria = experiment: Antibacterial activity in general, inhibition circle on agar containing bacteria; assay type: cell-based
Method: (§1) Twenty μl of a 2-fold series diluted solution containing 0.5% polypeptide (SEQ ID NO: 1) of the present invention and 20 μl of bacterium solution (10^6 to 10^7/ ml) were cultured onto 160 μl of a culture medium of Penassay or a synthetic medium of Jarvis. After 18 hours at 37° C., its turbidity was measured by use of a micro plate reader at 550 nm and also partial live bacteria number and inhibition circle were measured.

[2] = Gel precipitin reaction / double diffusion test in 1% agarose gel; assay type: binding
Method: In a solution of 1% agarose (0.1% NaN3 was added) dissolved in Tris-HCl-physiologic saline of pH 7.2, Beronall buffer of pH 8.6 and acetate buffer of pH 4.6, a sedimentation line was formed between LPS and the polypeptide (SEQ ID NO: 1) of the present invention or anti-LPS factor {basic protein having MW of 11,600, consisting of amino acid 102 residue obtained from extract (lysate) of Tachypleus tridentatus hemocyte; hereinafter referred to "ALF"}. The line was dyed in amide black. The diluent used for the polypeptide of the present invention was 50 mM Tris HCl--0.15M NaCl (pH 7.2).

[3] = system: LPS sensitized erythrocyte (human O-type); experiment: Hemolysis activity on LPS sensitized erythrocyte; assay type: cell-based
Method: To 1 ml of suspension containing mainly 2.5% human O-type erythrocyte, 0.5 ml of LPS (1 mg/ml ) was added and the mixture was shaken at […] for 1 hour to mix, followed by washing with saline solution.
A mixture of 50 μl of 0.5% LPS sensitized erythrocyte, 50 μl of 2-fold series diluted solution of 0.5% polypeptide of the present invention and 100 μl of Tris-HCl-buffered saline saline buffer (pH 7.2) was maintained at 37° C. for 1 hour and thereafter 2.3 ml of physiologic saline was added thereto, followed by centrifugation with 2,500 rpm for 10 minutes. The amount of hemoglobin in the supernatant was determined by use of […] absorption. Also, the hemolysis pattern on a micro plate was determined by use of a micro plate reader (Corona MPT-100: trade name) after maintaining a mixture of 50 μl of 0.5% LPS sensitized erythrocyte and 50 μl of 2-fold series diluted solution of 0.5% polypeptide at 37° C. for 1 hour.

[4] = system: non-sensitized erythrocyte; assay type: cell-based, human
[5] = system: Peripheral blood mononuclear cells of healthy human; experiment: Inhibition of blastogenesis of human peripheral lymphocyte by LPS (3H-TdR uptake); assay type: cell-based; conditions: 10 μg/ml LBP, 50 μg/ml LPS, 72 hours, FIG. 10
Method: Peripheral blood mononuclear cells (PBNC)of healthy human ([…]) were collected by use of Ficoll-Hypaque gravity centrifugation and suspended in RPMI-1640 culture medium (no serum or added with BSA, FCS). The resulting culture medium was adjusted to 2×10^6 cell/ml and 100 μl was distributed into each of the 96-holes of a microtiter plate. 10 μl of 200 μg/ml LBP, then 80 μl of the culture medium, and finally 10 μl of 400 μg/ml LPS were added to the distributed culture medium, followed by incubation in 5% CO2 incubator for, 72 hours. ^3 H-thymidine (^3 H-TdR) was added thereto in an amount of 1 μci/10 μl 18 hours before completion of the incubation. The amount of ^3 H-TdR collected after peeling of cells by use of cell harvester was measured by use of a liquid scintillation counter to discover the index of cell multiplication.

[6] = system: Salmonella minnesota 1114 W(S); experiment: Antibacterial activity; assay type: cell-based
Method: as §1

[7] = system: Salmonella minnesota R 595(Re); experiment: Antibacterial activity; assay type: cell-based
Method: as §1

[8] = system: Salmonella typhimurium LT 2(S); experiment: Antibacterial activity; assay type: cell-based
Method: as §1

Staphylococcus aureus = experiment: Antibacterial activity; assay type: cell-based; conditions: Gram positive bacteria
Method: as §1

[9] = system: Salmonella typhimurium 1102(Re); experiment: Antibacterial activity; assay type: cell-based
Method: as §1

[10] = system: C factor (activation with LPS derived from E. coli 0111 B4 strain); experiment: Inhibition of activation of C factor by LPS; assay type: biochemical, Horseshoe crab
Method: The acidic extract, concentrated and dried, was redissolved in 20mM HCl aq. soln. and then added into a Sephadex G-50 column (3.0×90.0 cm) (previously equilibrated with 20mM HCl aq. soln.) to effect gel filtration. The eluted fractions inhibiting activation of C factor with LPS (one derived from E. coli 0111 B4 strain was used) (Horseshoe crab blood coagulating serine protease precursor; LPS-sensitive factor named by the present inventors, Nakamura et al., Eur. J. Biochem., 154, 511 (1986 ) ) were collected, and the pH of the pooled fractions was adjusted to 6.0 with NaOH aq. soln.
The test results for the inhibition effect of the polypeptide (SEQ ID NO: 1) of the present invention against activation of C factor by LPS are shown in FIG. 2 and FIG. 3. FIG. 2 and FIG. 3 show the results in the absence or presence (1M) of sodium chloride, respectively. […] This property of binding electrically with LPS has been discovered by the present inventors. In FIG. 2 and FIG. 3, the marks (o) and show the results of the polypeptide of the present invention and polylysine, respectively.

With “polypeptide (SEQ ID NO: 1): 17 amino acid polypeptide isolated from Tachypleus tridentatus hemocyte and also made by solid phase synthesis; C-end arginine amidated (KWCFRVCYRGICYRRCR-NH2; cysteine pairing not given here)” the “magnification and colonization (blastogenesis) under the microscope” value (“magnification and colonization” below) ([1]; 0.2 μg/ml LBP, FIG. 7) was “few change were revealed”, the “magnification and colonization” value ([1]; 2 μg/ml LBP, FIG. 8) was “magnification and colonization were hardly revealed” and the “inhibition of blastogenesis of lymphocyte” value (“inhibition … of lymphocyte” below) ([1]; 2 μg/ml LBP) was at least 90%. The “magnification and colonization” value ([1]; 20 μg/ml LBP, FIG. 9) was “magnification and colonization were hardly revealed”, the “inhibition … of lymphocyte” value ([1]; 20 μg/ml LBP) was at least 90% and the “antibacterial activity compared with ALF” value (bacteria; ALF = anti-LPS factor from Tachypleus tridentatus hemocyte lysate) was “generally stronger than that of ALF”. The inhibition circle (bacteria; on an agar containing bacteria) was “formed depending on the concentration”, the “sedimentation line with LPS in the double diffusion test” value ([2]; 1% agarose gel) was “form a sedimentation line” and the “sedimentation lines in the gel precipitation reaction” value ([2]; any LPS of Salmonella minnesota 1114 W, R595, E. coli 0111:B4, 0113 and J5) was “sharp sedimentation lines”. For the same substance, the “hemolysis activity compared with ALF” value ([3]; ALF = anti-LPS factor, basic protein of MW 11,600 from Tachypleus tridentatus hemocyte lysate) was “weaker than that of ALF”, the “effect of free LPS on hemolysis” value ([3]; free LPS added) was “hemolysis was inhibited by a free LPS” and the “hemolysis at room temperature” value ([3]; high concentration, room temperature) was “exhibited hemolysis with ease”. For the same substance, the “amount at which hemolysis of non-sensitized erythrocyte was observed” value [4] was at least 3.13 μ/ml, the “inhibition … of lymphocyte” value [5] was “approximately 100%” and the antibacterial activity [6] was “exhibited antibacterial activity”. The antibacterial activity [7] was “exhibited antibacterial activity”, the antibacterial activity [8] was “exhibited antibacterial activity” and the minimum antibacterial dose ([8]; 18 hours at 37° C.) was 3.13 µg/mL. The antibacterial activity (Staphylococcus aureus) was “exhibited antibacterial activity”, the antibacterial activity [9] was “exhibited antibacterial activity” and the minimum antibacterial dose ([9]; 18 hours at 37° C.) was 1.56 µg/mL. The “concentration inhibiting activation of C factor with LPS 50%” value ([10]; 0.1 μg/ml of LPS (E. coli 0111 B4)) was 0.12 µg/mL, the IC50 ([10]; 0.1 μg/ml of LPS (E. coli 0111 B4), read-out: concentration inhibiting activation of C factor with LPS 50%) was 50 nM and the “influence of salt concentration on inhibition of C factor activation by LPS” value ([10]; absence or presence (1M) of sodium chloride, FIG. 2 and FIG. 3, polylysine as control) was “strong affinity for LPS which is not influenced by the salt concentration”. For the same substance, the “binding activity between LBP and LPS, C factor activity inhibition as index” value ([10]; amount of LBP relative to amount of LPS) was “about 20 times amount of LPS amount” and the “inhibition of activation of C factor with LPS” value ([10]; at 1 μM (2.3 μg/ml) polypeptide, 0.1 μg/ml of LPS (E. coli 0111 B4)) was “completely”.
